Assay results taken from US7220784B2, “Substituted stilbenes and their reactions” (priority 2000, dated 2007).
Read-outs that look alike come from different tables or passages of the source.

Key:
A2780 = test: Cytotoxicity/growth inhibition assay (MTT), A2780; type: cell-based; details: read-out: A2780 IC50
Method in brief: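 MTT cytotoxicity/growth-inhibition assay in human cell lines including A2780, A2780/ADR, H460 and HUVEC.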

[1] = test system: H460 human lung xenograft; test: Tumour damage in H460 human lung xenograft grown subcutaneously; type: in vivo; details: 0.75×MTD, i.p., twenty four hours following injection
Description: The effect of compounds 97–64H and 97–96 (quinone compound) was tested on H460 human lung xenograft grown subcutaneously by injecting equitoxic doses of the compounds (0.75×MTD).

K562 = test: IC50 of aliquots after ex situ irradiation in a photochemical reactor; details: Homo sapiens, K562, light or radiation study, read-out: IC50 (K562) (nM)
[2] = Photoisomerisation of trans-CA-4 ex situ, composition of mixture (GC); type: physicochemical
[3] = GC, benzene, 400 W Hg lamp, 0 mins (Table 3)
[4] = GC, benzene, 400 W Hg lamp, 0.5 mins (Table 3)
[5] = GC, benzene, 400 W Hg lamp, 1.5 mins (Table 3)
[6] = GC, benzene, 400 W Hg lamp, 3.0 mins (Table 3)
[7] = GC, benzene, 400 W Hg lamp, 5.0 mins (Table 3)
[8] = GC, benzene, 400 W Hg lamp, 6.5 mins (Table 3)
[9] = GC, benzene, 400 W Hg lamp, 8.0 mins (Table 3)
[10] = GC, benzene, 400 W Hg lamp, 10.0 mins (Table 3)
[11] = GC, benzene, 400 W Hg lamp, 12.5 mins (Table 3)
[12] = GC, benzene, 400 W Hg lamp, 15.0 mins (Table 3)
[13] = GC, benzene, 400 W Hg lamp, 17.5 mins (Table 3)
[14] = GC, benzene, 400 W Hg lamp, 20.0 mins (Table 3)
[15] = photoisomerisation ex situ, 0 mins (Table 5)
[16] = photoisomerisation ex situ, 0.5 mins (Table 5)
[17] = photoisomerisation ex situ, 1.0 mins (Table 5)
[18] = photoisomerisation ex situ, 1.5 mins (Table 5)
[19] = photoisomerisation ex situ, 2.0 mins (Table 5)
[20] = photoisomerisation ex situ, 3.0 mins (Table 5)
[21] = photoisomerisation ex situ, 4.0 mins (Table 5)
[22] = photoisomerisation ex situ, 5.0 mins (Table 5)
[23] = photoisomerisation ex situ, 7.5 mins (Table 5)
[24] = photoisomerisation ex situ, 10.0 mins (Table 5)
[25] = photoisomerisation ex situ, 12.5 mins (Table 5)
[26] = photoisomerisation ex situ, 15.0 mins (Table 5)
[27] = photoisomerisation ex situ, 17.5 mins (Table 5)
[28] = photoisomerisation ex situ, 20.0 mins (Table 5)

Compound: COc1ccc(C=Cc2cc(OC)c(OC)c(OC)c2)cc1F [Compound 97-64H]
- IC50 (A2780): 3.66 nM
- tumour damage [1]: extensive damage to the tumours

Compound: COc1ccc(/C=C/c2cc(OC)c(OC)c(OC)c2)cc1O [trans-CA-4, trans-combretastatin A-4]
- IC50 (K562; 0 h): 4000 nM
- IC50 (K562; 0.5 min): 310 nM
- IC50 (K562; 1 min): 530 nM
- IC50 (K562; 0.025 h): 50 nM
- IC50 (K562; 2 min): 20 nM
- IC50 (K562; 0.05 h): 12 nM
- IC50 (K562; 4 min): 9 nM
- IC50 (K562; 5 min): 10 nM
- IC50 (K562; 0.125 h): 3 nM
- IC50 (K562; 10 min): 6 nM
- IC50 (K562; 12.5 min): 4 nM
- IC50 (K562; 0.25 h): 1 nM
- IC50 (K562; 17.5 min): 3 nM
- IC50 (K562; 20 min): 2 nM
- % cis-stilbene [2, 3]: 0%
- % phenanthrene [2, 3]: 0%
- % trans-stilbene [2, 3]: 100%
- % cis-stilbene [2, 4]: 0%
- % phenanthrene [2, 4]: 0%
- % trans-stilbene [2, 4]: 100%
- % cis-stilbene [2, 5]: 0%
- % phenanthrene [2, 5]: 0%
- % trans-stilbene [2, 5]: 100%
- % cis-stilbene [2, 6]: 13%
- % phenanthrene [2, 6]: 0%
- % trans-stilbene [2, 6]: 87%
- % cis-stilbene [2, 7]: 31%
- % phenanthrene [2, 7]: 0%
- % trans-stilbene [2, 7]: 69%
- % cis-stilbene [2, 8]: 45%
- % phenanthrene [2, 8]: 0%
- % trans-stilbene [2, 8]: 55%
- % cis-stilbene [2, 9]: 47%
- % phenanthrene [2, 9]: 0%
- % trans-stilbene [2, 9]: 53%
- % cis-stilbene [2, 10]: 53%
- % phenanthrene [2, 10]: 0%
- % trans-stilbene [2, 10]: 44%
- % cis-stilbene [2, 11]: 68%
- % phenanthrene [2, 11]: 0%
- % trans-stilbene [2, 11]: 32%
- % cis-stilbene [2, 12]: 71%
- % phenanthrene [2, 12]: 0%
- % trans-stilbene [2, 12]: 29%
- % cis-stilbene [2, 13]: 74%
- % phenanthrene [2, 13]: 4%
- % trans-stilbene [2, 13]: 22%
- % cis-stilbene [2, 14]: 73%
- % phenanthrene [2, 14]: 4%
- % trans-stilbene [2, 14]: 23%
- % cis [2, 15]: 0.3%
- % phenanthrene [2, 15]: 0%
- % trans [2, 15]: 99.7%
- % cis [2, 16]: 2.0%
- % phenanthrene [2, 16]: 0%
- % trans [2, 16]: 98.0%
- % cis [2, 17]: 3.9%
- % phenanthrene [2, 17]: 0%
- % trans [2, 17]: 96.1%
- % cis [2, 18]: 6.3%
- % phenanthrene [2, 18]: 0%
- % trans [2, 18]: 93.7%
- % cis [2, 19]: 7.3%
- % phenanthrene [2, 19]: 0%
- % trans [2, 19]: 92.7%
- % cis [2, 20]: 25.7%
- % phenanthrene [2, 20]: 0%
- % trans [2, 20]: 74.3%
- % cis [2, 21]: 37.3%
- % phenanthrene [2, 21]: 0%
- % trans [2, 21]: 62.3%
- % cis [2, 22]: 47.9%
- % phenanthrene [2, 22]: 0%
- % trans [2, 22]: 52.1%
- % cis [2, 23]: 56.6%
- % phenanthrene [2, 23]: 1.4%
- % trans [2, 23]: 40.2%
- % cis [2, 24]: 63.1%
- % phenanthrene [2, 24]: 2.9%
- % trans [2, 24]: 34.0%
- % cis [2, 25]: 64.4%
- % phenanthrene [2, 25]: 3.4%
- % trans [2, 25]: 32.2%
- % cis [2, 26]: 64.6%
- % phenanthrene [2, 26]: 3.7%
- % trans [2, 26]: 31.7%
- % cis [2, 27]: 65.1%
- % phenanthrene [2, 27]: 4.1%
- % trans [2, 27]: 30.8%
- % cis [2, 28]: 65.7%
- % phenanthrene [2, 28]: 3.7%
- % trans [2, 28]: 30.6%
